Data as given in patent US20040259948A1, “Reciprocal regulation of inflammation and lipid metabolism by liver X receptors” (priority 2003, published 2004).

How the values were obtained:
[1] = test system: Thioglycolate-elicited peritoneal macrophages; experiment: Macrophage response to E. coli infection: iNOS mRNA and NO production; assay type: cell-based, murine; conditions: 18 h, pretreated with 1 μM ligand
Description: Thioglycolate-elicited peritoneal macrophages were infected in vitro with Escherichia coli. After 18 hours, expression of inducible nitric oxide synthase (iNOS) mRNA and nitric oxide (NO) production were assessed. […] Cells were then infected with E. coli (A, B) or treated with 100 ng/ml LPS(C, D, E) as indicated. After 18 h, NO production was determined using a colorimetric assay (A, D), or mRNA levels were determined using real-time quantitative PCR assays (B, C, E).
Thioglycolate-elicited peritoneal macrophages were cultured in RPMI containing 10% fetal bovine serum (FBS). […] For ligand treatments, cells were in cultured medium supplemented with 5% lipoprotein-deficient serum (LPDS) and ligands for 18 h before stimulation. […] NO production was determined spectrophotometrically (Castrillo, A. et al. 2000 Mol Cell Biol 20:1692-1698).
Total RNA was extracted using Trizol reagent (Life Technologies, Inc.). […] Real-time quantitative PCR (TaqMan) analysis was performed using an Applied Biosystems 7700 sequence detector.

[2] = test system: Thioglycolate-elicited murine peritoneal macrophages; experiment: Expression of NF-κB target genes in LPS-treated macrophages (northern blot, real-time quantitative PCR); assay type: cell-based
Description: LPS is an established inducer of the NF-κB signaling pathway in macrophages. Several genes inhibited by LXR ligands in the array studies above are established targets of NF-κB. To further investigate the role of LXRs in NF-κB-dependent gene expression, we analyzed expression of NF-κB target genes in peritoneal macrophages from wild-type mice. […] Expression of NF-κB target genes was determined by northern blot (A) or by real-time quantitative PCR assays (B). 36B4 was used as a control for RNA loading and integrity. […] RNA and protein analysis. Total RNA was extracted using Trizol reagent (Life Technologies, Inc.). Northern blot analysis was carried out as described using radiolabeled cDNA probes (Tontonoz, P. et al. 1998 Cell 93:241-252). Real-time quantitative PCR (TaqMan) analysis was performed using an Applied Biosystems 7700 sequence detector. Two-step real-time PCR was performed as described (Joseph, S. B. et al. 2002 J Biol Chem 277:11019-11025). The primers and probes used are as follows: […]

[3] = test system: human aortic endothelial cells; experiment: TNF-induced gene expression in human aortic endothelial cells; assay type: cell-based; conditions: TNF 6 hours; real time qPCR
Description: Activation of LXR by synthetic ligands inhibits inflammatory gene expression in multiple human cell types (FIG. 7A-C). TNFα plays a role in the induction of inflammatory mediators in during inflammation. Cells were treated for 6 hours with TNF as indicated and gene expression was measured by real time qPCR.

[4] = test system: Thioglycolate-elicited peritoneal macrophages; experiment: DNA microarray analysis of LPS-activated macrophages; assay type: cell-based, mice; conditions: 2 μM 18 h, then 100 ng/ml LPS 6 h
Description: DNA microarrays were used to further examine the effect of LXR activation on LPS-induced gene transcription. […] Cells were harvested 6 hours after LPS stimulation and total RNA from these samples was used to probe Affymetrix U74Av2 arrays. The array data were analyzed using GeneSpring software to identify genes regulated by the ligand in the cells. […] Genes involved in inflammation or lipid metabolism were selected based on ligand-dependent changes in expression in the cells. […] DNA microarray analysis. […] Total RNA was reverse transcribed using a T7-(dT)24 primer (Genset Corp.). Biotin-labeled cRNA was generated using the Bioarray High Yield Transcript Labeling Kit (ENZO). Samples were hybridized to single Affymetrix Murine U74Av2 microarrays and visualized by the PAN Facility at Stanford University. Data was analyzed using GeneSpring and GeneChip Analysis Suite software (Affymetrix). Only those results determined by the software to represent significant expression differences in the presence or absence of ligand are presented. Positive results were defined as ligand-dependent changes in expression in wild-type cells.

[5] = test system: atherosclerotic aortas of Apoe−/− mice; experiment: Gene expression in atherosclerotic aortas of Apoe−/− mice; assay type: in vivo; conditions: Apoe−/− mice 8 months of age, treated 3 days
Description: Next, the influence of LXR agonists on inflammatory gene expression induced by IL-1β and TNFα, which have been implicated in the pathogenesis of atherosclerosis, was tested. […] Gene expression was detected by real-time quantitative PCR assays. […] Total RNA was isolated from individual aortas and gene expression was measured by real-time quantitative PCR. P<0.05 for MMP-9 (*) and P<0.01 (**) for ABCA1. […] Thus, LXR agonist reduces expression of an established inflammatory mediator in the vessel wall. RNA and protein analysis. Total RNA was extracted using Trizol reagent (Life Technologies, Inc.). Northern blot analysis was carried out as described using radiolabeled cDNA probes (Tontonoz, P. et al. 1998 Cell 93:241-252). Real-time quantitative PCR (TaqMan) analysis was performed using an Applied Biosystems 7700 sequence detector. Two-step real-time PCR was performed as described (Joseph, S. B. et al. 2002 J Biol Chem 277:11019-11025). The primers and probes used are as follows: Animals. Mice on a mixed background (C57B1/6 and 129v) and Apoe^−/− mice on a C57B1/6 background were maintained on standard chow. […] Irritant contact dermatitis was induced as described (Sheu, M. Y. et al. 2002 J Invest Dermatol 118:94-101). Briefly, 10 μl of 0.03% 12-O-tetradecanoylphorbol-13-acetate (TPA) in acetone was applied to the left ears of male mice. The right ears were treated with vehicle alone. […] After 18 h of TPA treatment, the thickness and weight of 6-mm punch biopsies were determined. Statistical analysis was performed using Student's t-test. Experiments were conducted in accordance of the Animal Research Committee of the University of California, Los Angeles.

[6] = pretreated 18 h, 100 ng/ml LPS 3 h and 6 h, northern blot
[7] = pretreated 18 h, 100 ng/ml LPS 6 h, real-time quantitative PCR

receptor-independent induction of IL-6 [2]: modest receptor-independent induction
receptor-independent induction of MCP-1 [2]: modest receptor-independent induction
IL1-receptor antagonist (IL-1RN) expression [2, 7]: effective inhibitors
Compound: O=C(O)Cc1cccc(OCCCN(Cc2cccc(C(F)(F)F)c2Cl)CC(c2ccccc2)c2ccccc2)c1 [GW3965]
iNOS activity (NO / nitrite production) ([1]; colorimetric assay): reduced
iNOS mRNA ([1]; real-time quantitative PCR): significantly reduced
iNOS mRNA expression ([2]; LPS, FIG. 3a, receptor-dependent): inhibition
COX-2 expression [2, 6]: effective inhibitors
lκBα expression [2, 6]: effective inhibitors
IL-1β expression [2, 7]: effective inhibitors
IL-6 expression [2, 7]: effective inhibitors
MCP-1 expression [2, 7]: effective inhibitors
TNF-induced gene expression [3]: inhibited
expression of cluster of genes of macrophage innate immune response (iNOS, COX-2, IL-6, IL-1β, G-CSF, MCP-1, MCP-3, MIP-1β, IP-10, MMP-9) [4]: inhibited
expression of genes involved in lipid metabolism (incl. Abca1) [4]: most highly induced
expression of genes involved in other cellular processes [4]: not significantly altered
Change: Apoptosis inhibitor 2 ([4]; apoptosis gene): 1.10
Change: Apoptosis inhibitor 3 ([4]; apoptosis gene): 0.83
Change: Apoptosis signal-regulating kinase 1 ([4]; apoptosis gene): 0.99
Change: Apoptosis-inducing factor AIF (Aif) ([4]; apoptosis gene): 0.83
Change: Bc1-10 protein ([4]; apoptosis gene): 1.13
Change: Bc12-associated X protein ([4]; apoptosis gene): 1.15
Change: Bc12-like ([4]; apoptosis gene): 0.80
Change: Bc12 homologous antagonist/killer ([4]; apoptosis gene): 0.94
Change: Caspase 2 ([4]; apoptosis gene): 1.10
Change: Caspase 3, apoptosis related cysteine protease ([4]; apoptosis gene): 1.40
Change: Caspase 7 ([4]; apoptosis gene): 0.94
Change: Caspase 9 ([4]; apoptosis gene): 0.79
Change: Caspase 11 ([4]; apoptosis gene): 0.92
Change: E1B 19 K/Bc1-2-binding protein homolog (Nip3) ([4]; apoptosis gene): 1.14
Change: Avian reticuloendotheliosis viral (v-rel) oncogene related B ([4]; cell-cycle gene): 1.21
Change: Cell division cycle 42 ([4]; cell-cycle gene): 1.06
Change: Cyclin 1 ([4]; cell-cycle gene): 1.05
Change: Cyclin B2 ([4]; cell-cycle gene): 0.68
Change: Cyclin F ([4]; cell-cycle gene): 0.72
Change: Cyclin G2 ([4]; cell-cycle gene): 0.83
Change: Cyclin dependent kinase inhibitor 2B (Cdkn2b) ([4]; cell-cycle gene): 1.15
Change: Cyclin-dependent kinase 5 ([4]; cell-cycle gene): 1.00
Change: Cyclin-dependent kinase inhibitor 1A (P21) ([4]; cell-cycle gene): 0.85
Change: Cyclin-dependent kinase inhibitor 1C (P57) ([4]; cell-cycle gene): 1.28
Change: Early growth response 2 ([4]; cell-cycle gene): 0.96
Change: Growth arrest specific 1 ([4]; cell-cycle gene): 0.91
Change: Growth arrest specific 2 ([4]; cell-cycle gene): 0.92
Change: Growth arrest specific 7 ([4]; cell-cycle gene): 1.22
Change: Guanine Nucleotide Regulatory Protein ([4]; cell-cycle gene): 1.12
Change: Met proto-oncogene ([4]; cell-cycle gene): 1.12
Change: Proliferating cell nuclear antigen ([4]; cell-cycle gene): 1.13
expression of ABCA1 in aorta ([5]; real-time quantitative PCR): induced
expression of macrophage-specific marker CD68 in aorta ([5]; real-time quantitative PCR): did not affect
expression of MCP-1 in aorta ([5]; versus vehicle): not different
expression of MMP-9 in aorta ([5]; versus vehicle): substantially reduced
expression of iNOS in aorta ([5]; versus vehicle): not different
